From the NIST ThermoML archive (doi:10.1021/je5007696)

Experiment: refractive index (Na D-line) (dimensionless); xn = mol fraction of the nth substance listed
Settings: 100 kPa, Liquid, Standard Abbe refractometry

CCC(C)=O [butanone] + CCCCO
refractive index
Settings | x1 = 0.0997 | x1 = 0.1999 | x1 = 0.3003 | x1 = 0.4008 | x1 = 0.5003 | x1 = 0.6001 | x1 = 0.6992 | x1 = 0.7991 | x1 = 0.899 | x1 = 1
288.15 K | 1.39943 | 1.3975 | 1.39558 | 1.39362 | 1.39169 | 1.38971 | 1.38771 | 1.38569 | 1.38364 | 1.38153
293.15 K | 1.39733 | 1.39533 | 1.39333 | 1.39131 | 1.38933 | 1.38729 | 1.38525 | 1.38316 | 1.38108 | 1.37892
298.15 K | 1.39524 | 1.39315 | 1.39107 | 1.38899 | 1.38696 | 1.38486 | 1.38276 | 1.38062 | 1.37849 | 1.37631
303.15 K | 1.3931 | 1.39095 | 1.38882 | 1.38669 | 1.38457 | 1.38241 | 1.38025 | 1.37807 | 1.37589 | 1.37366
308.15 K | 1.39096 | 1.38872 | 1.38651 | 1.38433 | 1.38215 | 1.37995 | 1.37775 | 1.37551 | 1.3733 | 1.37102
313.15 K | 1.38881 | 1.38649 | 1.38421 | 1.38196 | 1.37973 | 1.37748 | 1.37522 | 1.37293 | 1.37065 | 1.36834
318.15 K | 1.38664 | 1.38427 | 1.38192 | 1.37958 | 1.37728 | 1.37496 | 1.37265 | 1.37031 | 1.36798 | 1.36565
323.15 K | 1.38447 | 1.38203 | 1.37959 | 1.37718 | 1.3748 | 1.37244 | 1.37008 | 1.36769 | 1.36531 | 1.36294
